Data from patent US9974778B2, “Substituted pyridinones as MGAT2 inhibitors” (BRISTOL-MYERS SQUIBB COMPANY, priority 2014, dated 2018).

Target: T1, Human MGAT-2 (Homo sapiens, UniProt Q3SYC2)
T1 construct: made in house; host or cells: Sf9 cells (membrane preparation)
Test: MGAT LCMS Assay
Format: biochemical
Settings: human MGAT2 membranes expressed in Sf9 cells; 100 μM 2-oleoylglycerol, 15 μM oleoyl-coenzyme A; read-out: h-MGAT LCMS IC50
Outline: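 Robotic enzyme reaction shaken 10 min, quenched with ice-cold methanol containing 1 μg/mL 1,2-distearoyl-rac-glycerol internal standard. Diolein product measured by LC/MS (C8 column, 65° C, APCI(+) triple quad). IC50 derived from diolein/internal standard peak area ratio.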

T1 sequence (Q3SYC2 whole entry): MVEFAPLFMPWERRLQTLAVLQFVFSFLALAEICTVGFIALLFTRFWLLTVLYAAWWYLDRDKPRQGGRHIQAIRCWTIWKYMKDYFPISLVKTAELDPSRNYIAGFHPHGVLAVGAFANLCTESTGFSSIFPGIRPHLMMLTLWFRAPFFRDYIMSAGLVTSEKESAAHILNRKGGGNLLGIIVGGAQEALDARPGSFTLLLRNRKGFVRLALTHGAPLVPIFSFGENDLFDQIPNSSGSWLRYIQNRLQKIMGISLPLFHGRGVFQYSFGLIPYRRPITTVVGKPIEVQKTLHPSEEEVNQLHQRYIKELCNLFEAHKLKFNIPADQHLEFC

In order of falling IC50:
1. CCCC1CC=C(c2ccc(-c3cc(-c4ccn(CC5CC5)n4)c(-c4nn[nH]n4)c(=O)[nH]3)cc2)CC1 (stereo not drawn) [Example 173, 4-[1-(Cyclopropylmethyl)-1H-pyrazol-3-yl]-6-[4-(4-propylcyclohex-1-en-1-yl)phenyl]-3-(2H-1,2,3,4-tetrazol-5-yl)-1,2-dihydropyridin-2-one]  57 nM
2. CC1(C)CCC(c2ccc(-c3cc(-c4ccn(CC5CC5)n4)c(-c4nn[nH]n4)c(=O)[nH]3)cc2)CC1 [Example 172, 4-[1-(Cyclopropylmethyl)-1H-pyrazol-3-yl]-6-[4-(4,4-dimethylcyclohexyl)phenyl]-3-(2H-1,2,3,4-tetrazol-5-yl)-1,2-dihydropyridin-2-one]  26 nM
3. CC(C)(C)C1CC=C(c2ccc(-c3cc(-c4ccn(CC5CC5)n4)c(-c4nn[nH]n4)c(=O)[nH]3)cc2)CC1 (stereo not drawn) [Example 171, 6-[4-(4-tert-Butylcyclohex-1-en-1-yl)phenyl]-4-[1-(cyclopropylmethyl)-1H-pyrazol-3-yl]-3-(2H-1,2,3,4-tetrazol-5-yl)-1,2-dihydropyridin-2-one]  6 nM
